This passage reports TGI results from PubChem BioAssay (NCI).

The structures appear in SMILES notation.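 A five-concentration, 48-hour dose response in 96-well plates underlies each endpoint, interpolated linearly between surrounding concentrations. TGI is the concentration that stops growth completely.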

Common to all, as to assay: NCI tumour cell line growth inhibition, 48 h
The subject of test [1] is NCI-H460 lung.
Test [2] has as its system SF-268 CNS.
Test [3] relates to SF-295 CNS.
Test [4] has as its system SNB-75 CNS.
In test [5] the test system is OVCAR-8 ovarian.
The test system of test [6] is HT29 colon.
Test [7] deals with NCI-H23 lung.
In test [8] the test system is M14 melanoma.
Test [9] relates to LOX IMVI melanoma.
For test [10], the system named is UO-31 renal.
Test [11] has as its system SR leukemia.
Test [12] relates to EKVX NSCLC.

In the case of `O=C1CC2(CCC(O)(c3ccc(Cl)cc3)C(C(=O)c3ccc(Cl)cc3)C2)C(=O)c2ccccc2N1` (configuration not stated), the TGI is > 100 µM in test [1]; 17 µM in test [2]; 39.5 µM in test [3]; 3.82 µM in test [4]; > 62.4 µM in test [5]; > 50 µM in test [6]. Moreover, the TGI in test [7] is 53.8 µM; in test [8] it was > 100 µM; in [9], > 86.8 µM; in test [10] it was 49.9 µM; in [11], > 100 µM; in [12] it was > 48.6 µM.
`CCOC(=O)c1c(NC(=O)Nc2ccccc2)c(C(N)=O)c2n1CCCCC2`: the TGI in [1], in test [2], in test [3], in test [4], in test [5] and in test [6] was > 100 µM in each case. For the same compound, the TGI in [7], in [8], in [9], in test [10], in [11] and in test [12] was > 100 µM each time.
Turning to `CCCCCc1c2nc(c(CCCCC)c3ccc([nH]3)c(CCCCC)c3ccc([nH]3)c(CCCCC)c3nc1C=C3)C=C2`, the TGI in [1], in test [2], in [3], in test [4], in test [5] and in [6] was > 100 µM each time. Moreover, the TGI in test [7], in test [8], in [9], in test [10], in [11] and in [12] was > 100 µM throughout.
Turning to `OC1CC(O)c2c(Cl)sc(Cl)c21` (configuration not stated), the TGI is 65.2 µM in test [1]; > 100 µM in test [2]; 87.3 µM in test [3]; 49.2 µM in test [4]; > 100 µM in test [5]; > 100 µM in test [6]. Further, the TGI in test [7] was 67.3 µM; in [8], > 100 µM; in test [9], > 100 µM; in test [10], 77.5 µM; in test [11] it was > 100 µM; in test [12], > 100 µM.
Regarding `Cc1cc2oc(=O)[nH]c(=S)c2c(C)c1C`, the TGI in test [1], in test [2], in [3], in [4], in test [5] and in test [6] was > 100 µM in each case. The TGI in test [7], in test [8], in test [9], in [10], in test [11] and in [12] was > 100 µM in each case.
Consider `C=CCOCn1ccc(=O)[nH]c1=O`, for which the TGI in test [1], in test [2], in test [3], in [4], in test [5] and in test [6] was > 100 µM throughout. Besides, the TGI in [7], in [8], in [9], in test [10], in test [11] and in test [12] was > 100 µM in each case.
As for `CC(C)(C)N1NC1C1NN1C(C)(C)C` (configuration not stated), the TGI in [1], in test [2], in test [3], in test [4], in test [5] and in [6] was > 100 µM in each case. Also, the TGI in test [7], in test [8], in [9], in test [10], in test [11] and in test [12] was > 100 µM throughout.
For `COC(=O)c1c(C(=O)OC)c2cc(C(=O)c3ccccc3)ccn2c1Cl`, the TGI in test [1] is > 100 µM; in [2], > 100 µM; in test [3], 85.2 µM; in test [4] it was 55.4 µM; in [5], > 100 µM; in test [6] it was > 100 µM. Moreover, the TGI is 88.1 µM in [7]; > 100 µM in test [8]; > 100 µM in [9]; 89.8 µM in [10]; 40.5 µM in test [11]; > 100 µM in test [12].
In the case of `COC12C=CC(CC1)C1C(=O)c3c(C)c(C)n(C)c3C(=O)C12` (configuration not stated), the TGI in [1], in test [2], in [3], in test [4], in test [5] and in test [6] was > 100 µM throughout. The TGI in test [7], in [8], in test [9], in test [10], in test [11] and in [12] was > 100 µM each time.
`Cc1ccccc1N(C)S(=O)(=O)c1ccccc1[N+](=O)[O-]`: the TGI in test [1], in [2], in [3], in [4], in [5] and in [6] was > 100 µM each time. The TGI in test [7], in test [8], in test [9], in test [10], in [11] and in test [12] was > 100 µM each time.
`CCOC(=O)c1nc2ccc(C(F)(F)F)cc2nc1Oc1ccc(F)cc1`: the TGI in [1], in test [2], in [3], in test [4], in test [5] and in [6] was > 100 µM in each case. Besides, the TGI in test [7], in [8], in test [9], in [10], in test [11] and in [12] was > 100 µM throughout.
